Measurements: patent publication US20100222421A1, “Usage of Baicalein in the Preparation of a Pharmaceutical Composition for the Treatment of Traumatic Brain Injury” (National Defense Medical Center, priority 2009, published 2010)

Key:
Type in all cases: in vivo, rat
TNF-α protein = test: ELISA, TNF-α protein after CCI injury; conditions: single-dose 30 mg kg^-1 i.p.; ipsilateral cortex, 1 day post-injury; P<0.05
Protocol: (§1) A previously described CCI injury procedure was utilized (Chen et al., 2003). Male Sprague-Dawley rats, which have body weight of 250-300 g, were anaesthetized with sodium pentobarbital (i.p.; 50 mgkg^−1; Rhone Merieux, Harlow, UK) and placed in a stereotaxic frame. A 5-mm craniotomy was performed over the left parietal cortex, centered on the coronal suture and 3 mm lateral to the sagittal suture. Considerable care was taken to avoid injury to the underlying dura. Injury was made using a pneumatic piston with a rounded metal tip (2.5 mm diameter) that was angled 22.5° C. to the vertical so that the tip was perpendicular with the brain surface at the centre of the craniotomy. A velocity of 4 ms^−1 and a deformation depth 2 mm below the dura were used. […] Body temperature was monitored throughout the surgery by a rectal probe; temperature was maintained at 37.0±0.5° C. using a heated pad. […]
(§2) Single-dose baicalein (30 mg kg^−1) or a corresponding volume of vehicle was administered i.p. immediately following injury. […] Testing after injury was as follows: (1) real-time quantitative RT-PCR analysis for TNF-α, IL-1β and IL-6 mRNA expression at 6 h post-injury (n=7 for each group); (2) FluoroJade B (FJB) staining, TNF-α, IL-1β and IL-6 immunohistochemistry, as well as ELISA at 24 h post-injury to assess degenerative neurons and to determine cytokine expression (n=7 for each group). […]

IL-1β protein = test: ELISA, IL-1β protein after CCI injury; conditions: single-dose 30 mg kg^-1 i.p.; ipsilateral cortex, 1 day post-injury; P<0.01
Protocol: as §1, §2

TNF-α-positive cells = test: Immunohistochemistry, TNF-α-positive cells after CCI injury; conditions: single-dose 30 mg kg^-1 i.p.; cortical tissue adjacent to contusion core, 1 day post-injury
Protocol: A previously described CCI injury procedure was utilized (Chen et al., 2003). Male Sprague-Dawley rats, which have body weight of 250-300 g, were anaesthetized with sodium pentobarbital (i.p.; 50 mgkg^−1; Rhone Merieux, Harlow, UK) and placed in a stereotaxic frame. A 5-mm craniotomy was performed over the left parietal cortex, centered on the coronal suture and 3 mm lateral to the sagittal suture. Considerable care was taken to avoid injury to the underlying dura. Injury was made using a pneumatic piston with a rounded metal tip (2.5 mm diameter) that was angled 22.5° C. to the vertical so that the tip was perpendicular with the brain surface at the centre of the craniotomy. A velocity of 4 ms^−1 and a deformation depth 2 mm below the dura were used. The bone flap was immediately replaced and sealed, and the scalp was closed with sutures. Body temperature was monitored throughout the surgery by a rectal probe; temperature was maintained at 37.0±0.5° C. using a heated pad. […] Testing after injury was as follows: (1) real-time quantitative RT-PCR analysis for TNF-α, IL-1β and IL-6 mRNA expression at 6 h post-injury (n=7 for each group); (2) FluoroJade B (FJB) staining, TNF-α, IL-1β and IL-6 immunohistochemistry, as well as ELISA at 24 h post-injury to assess degenerative neurons and to determine cytokine expression (n=7 for each group). […]

Compound: O=c1cc(-c2ccccc2)oc2cc(O)c(O)c(O)c12 [baicalein]
- TNF-α protein concentration, % of concentration in vehicle-treated rats (TNF-α protein): 54%
- IL-1β protein concentration, % of concentration in vehicle-treated rats (IL-1β protein): 42%
- reduction in TNF-α-positive cells relative to vehicle (TNF-α-positive cells): 37%
